Measurements taken from the supplement of paper PMC10307832.

Assays:
Experiment in all cases: relative viability (nuclei count vs DMSO), 5 days (fraction); higher = more cells survive
Omipalisib + Palbociclib = compound: COc1ncc(-c2ccc3nccc(-c4ccnnc4)c3c2)cc1NS(=O)(=O)c1ccc(F)cc1F [Omipalisib] + CC(=O)c1c(C)c2cnc(Nc3ccc(N4CCNCC4)cn3)nc2n(C2CCCC2)c1=O [Palbociclib] (partner 0.5 µM)
Outline: (§1)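 Medians of duplicate plates are given as relative viability. That measure is the nuclei count in treated wells divided by the count in vehicle wells. Counts were taken on 4× images of lung cancer cell lines in 1536-well plates, 5 days after pin-tool dosing the day after seeding with one drug alone or a fixed anchor-drug dose plus five library-drug doses (not always all listed) in √10 steps.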

Omipalisib + Lapatinib = compound: COc1ncc(-c2ccc3nccc(-c4ccnnc4)c3c2)cc1NS(=O)(=O)c1ccc(F)cc1F [Omipalisib] + CS(=O)(=O)CCNCc1ccc(-c2ccc3ncnc(Nc4ccc(OCc5cccc(F)c5)c(Cl)c4)c3c2)o1 [Lapatinib] (partner 2 µM)
Outline: as §1

Omipalisib + Pictilisib = compound: COc1ncc(-c2ccc3nccc(-c4ccnnc4)c3c2)cc1NS(=O)(=O)c1ccc(F)cc1F [Omipalisib] + CS(=O)(=O)N1CCN(Cc2cc3nc(-c4cccc5[nH]ncc45)nc(N4CCOCC4)c3s2)CC1 [Pictilisib] (partner 1 µM)
Outline: as §1

Omipalisib + Alpelisib = compound: COc1ncc(-c2ccc3nccc(-c4ccnnc4)c3c2)cc1NS(=O)(=O)c1ccc(F)cc1F [Omipalisib] + Cc1nc(NC(=O)N2CCC[C@H]2C(N)=O)sc1-c1ccnc(C(C)(C)C(F)(F)F)c1 [Alpelisib] (partner 2 µM)
Outline: as §1

Omipalisib + Phenformin = compound: COc1ncc(-c2ccc3nccc(-c4ccnnc4)c3c2)cc1NS(=O)(=O)c1ccc(F)cc1F [Omipalisib] + N=C(N)NC(=N)NCCc1ccccc1 [Phenformin] (partner 250 µM)
Outline: as §1

Omipalisib + Vorinostat = compound: COc1ncc(-c2ccc3nccc(-c4ccnnc4)c3c2)cc1NS(=O)(=O)c1ccc(F)cc1F [Omipalisib] + O=C(CCCCCCC(=O)Nc1ccccc1)NO [Vorinostat] (partner 1 µM)
Outline: as §1

| Cell Line | relative viability (Omipalisib + Palbociclib; first compound 0.0003 µM) | relative viability (Omipalisib + Palbociclib; first compound 0.003 µM) | relative viability (Omipalisib + Palbociclib; first compound 0.03 µM) | relative viability (Omipalisib + Lapatinib; first compound 0.0003 µM) | relative viability (Omipalisib + Lapatinib; first compound 0.003 µM) | relative viability (Omipalisib + Lapatinib; first compound 0.03 µM) | relative viability (Omipalisib + Pictilisib; first compound 0.0003 µM) | relative viability (Omipalisib + Pictilisib; first compound 0.003 µM) | relative viability (Omipalisib + Pictilisib; first compound 0.03 µM) | relative viability (Omipalisib + Alpelisib; first compound 0.0003 µM) | relative viability (Omipalisib + Alpelisib; first compound 0.003 µM) | relative viability (Omipalisib + Alpelisib; first compound 0.03 µM) | relative viability (Omipalisib + Phenformin; first compound 0.0003 µM) | relative viability (Omipalisib + Phenformin; first compound 0.003 µM) | relative viability (Omipalisib + Phenformin; first compound 0.03 µM) | relative viability (Omipalisib + Vorinostat; first compound 0.0003 µM) | relative viability (Omipalisib + Vorinostat; first compound 0.003 µM) | relative viability (Omipalisib + Vorinostat; first compound 0.03 µM) |
| --- | --- | --- | --- | --- | --- | --- | --- | --- | --- | --- | --- | --- | --- | --- | --- | --- | --- | --- |
| LC-2-ad | 0.488 | 0.458 | 0.299 | 0.933 | 0.784 | 0.745 | 0.517 | 0.582 | 0.238 | 0.858 | 0.856 | 0.425 | 0.438 | 0.368 | 0.258 | 0.67 | 0.575 | 0.303 |
| BEN | 0.434 | 0.444 | 0.452 | 0.566 | 0.444 | 0.364 | 0.513 | 0.378 | 0.412 | 0.781 | 0.58 | 0.585 | 0.259 | 0.277 | 0.27 | 0.502 | 0.498 | 0.452 |
| NCI-H1944 | 0.264 | 0.25 | 0.169 | 0.785 | 0.493 | 0.385 | 0.363 | 0.301 | 0.28 | 0.884 | 0.638 | 0.441 | 0.183 | 0.148 | 0.126 | 0.469 | 0.359 | 0.29 |
| HCC-827 | 0.471 | 0.381 | 0.266 | 0.192 | 0.158 | 0.187 | 0.864 | 0.974 | 0.533 | 1.06 | 0.943 | 0.389 | 0.402 | 0.343 | 0.271 | 0.864 | 0.682 | 0.438 |
| HCC-44 | 0.962 | 0.962 | 0.879 | 1.09 | 0.96 | 0.432 | 0.579 | 0.464 | 0.441 | 0.742 | 0.619 | 0.29 | 0.202 | 0.141 | 0.102 | 1.12 | 1.18 | 0.559 |
| ChaGo-K-1 | 0.853 | 0.843 | 0.708 |  |  |  | 0.635 | 0.652 | 0.809 |  |  |  | 0.486 | 0.401 | 0.406 | 0.732 | 0.619 | 0.675 |
| NCI-H647 | 0.263 | 0.21 | 0.179 | 0.932 | 0.782 | 0.272 | 0.462 | 0.307 | 0.386 | 1.09 | 0.98 | 0.33 | 0.402 | 0.267 | 0.185 | 0.304 | 0.368 | 0.295 |
| HOP-62 | 0.468 | 0.426 | 0.292 | 0.946 | 0.901 | 0.702 | 0.745 | 0.538 | 0.595 | 0.911 | 0.926 | 0.666 | 0.659 | 0.718 | 0.639 | 0.563 | 0.511 | 0.323 |
| NCI-H1666 | 0.641 | 0.632 | 0.658 | 0.502 | 0.298 | 0.24 | 0.406 | 0.335 | 0.186 | 0.968 | 0.718 | 0.509 | 0.547 | 0.559 | 0.487 | 1.02 | 0.881 | 0.815 |
| SW 900 | 0.522 | 0.444 | 0.278 |  |  |  |  |  |  |  |  |  | 0.513 | 0.321 | 0.424 | 0.523 | 0.484 | 0.316 |
| PC-3 [JPC-3] | 0.547 | 0.527 | 0.534 | 0.457 | 0.367 | 0.318 | 0.816 | 0.766 | 0.689 | 1 | 0.993 | 0.863 | 0.475 | 0.477 | 0.414 | 0.889 | 0.821 | 0.613 |
| NCI-H661 | 0.403 | 0.363 | 0.313 | 0.366 | 0.294 | 0.196 | 0.567 | 0.37 | 0.365 | 0.804 | 0.612 | 0.478 | 0.264 | 0.264 | 0.224 | 0.78 | 0.782 | 0.785 |
| NCI-H2085 | 0.553 | 0.479 | 0.33 | 0.838 | 0.571 | 0.382 | 0.416 | 0.474 | 0.436 | 1.06 | 0.787 | 0.36 | 0.869 | 0.429 | 0.303 | 0.815 | 0.701 | 0.436 |
| NCI-H2126 | 0.344 | 0.344 | 0.317 | 0.759 | 0.46 | 0.374 | 0.518 | 0.463 | 0.435 | 0.696 | 0.583 | 0.474 | 0.489 | 0.425 | 0.292 | 0.718 | 0.442 | 0.348 |
| NCI-H460 | 0.147 | 0.0934 | 0.0384 | 0.594 | 0.845 | 0.151 | 0.419 | 0.254 | 0.316 | 0.362 | 0.241 | 0.0908 | 0.461 | 0.24 | 0.0524 | 0.653 | 0.617 | 0.0977 |
| NCI-H596 |  |  |  | 0.972 | 0.833 | 0.421 | 0.43 | 0.386 | 0.412 | 0.491 | 0.363 | 0.395 | 0.692 | 0.445 | 0.387 | 0.581 | 0.364 | 0.447 |
| LK-2 | 0.421 | 0.203 | 0.225 | 0.698 | 0.502 | 0.306 | 0.446 | 0.306 | 0.445 | 0.962 | 0.608 | 0.521 | 0.532 | 0.128 | 0.144 | 0.276 | 0.18 | 0.154 |
| UMC-11 | 0.332 | 0.272 | 0.299 | 0.836 | 0.531 | 0.738 | 0.702 | 0.425 | 0.67 | 0.965 | 0.829 | 0.822 | 0.338 | 0.329 | 0.316 | 0.416 | 0.281 | 0.264 |
